Experimental data: PMC5464344, “Analgesic and anti‐inflammatory properties of novel, selective, and potent EP4 receptor antagonists” (Pharmacology Research & Perspectives, 2017)
Values joined by “and” are separate entries in the source; they are usually repeats but may differ in a detail not shown here. Identical values can stand only once.

Assays:
[1] = tested on: female Lewis rats, collagen induced arthritis; experiment: Type-II CIA model of inflammation and autoimmunity; type: in vivo; details: rat CIA
Procedure: (§1) For the monoiodoacetate (MIA) and adjuvant induced arthritis (AIA) studies, male Lewis rats (Envigo, Indianapolis, IN) of approximately 8 weeks of age at the time of disease induction were used. For collagen induced arthritis studies (CIA) female Lewis rats (Charles River) weighing 150–170 g were used. Rats were housed in groups of 2 or 3 per cage and maintained in a constant temperature, and on a 12 h light/12 h dark cycle. Animals had free access to food and water at all times except during data collection.
On day 1 of the study ankle widths are measured across the joint (left side to right side) at the thickest point with calipers and rats immunized intradermally near the base of the tail with 0.4 mL of 1 mg/mL type II collagen (Elastin Products) emulsified with incomplete Freund's adjuvant (Sigma Aldrich). A second booster injection booster of 0.4 mL of the collagen emulsion was given on day 8 of the study. Ankle widths were measured on day 8 before the collagen injection and every 2–3 days thereafter until study end. On day 11 rats were randomized into five groups of eight animals based on inflammation (redness and/or swelling) in their hind paws and body weight. Rats were then dosed with vehicle (10% Acacia plus 0.05% antifoam) and compound 3 at doses of 3, 10, and 30 mg/kg. Prednisolone was included at a dose of 10 mg/kg as a positive control. Dosing was by oral gavage once daily for seventeen days at a dose volume of 5 mL/kg. On day 28 rats were euthanized and hind paws and knee joints collected for histology. Ankles and knees were fixed in neutral buffered formalin, decalcified, embedded in paraffin, and sectioned according to standard histological methodology and the joints were then scored by a pathologist using published scoring criteria (Bendele 2001; Levine et al. 2014).

[2] = tested on: male Lewis rats, adjuvant induced arthritis; experiment: AIA model of inflammation (paw swelling); type: in vivo; details: rat AIA; 10 mg/kg oral once daily 4 days; P < 0.05 by Dunnett's test
Procedure: as §1
On Day 0, paw widths of both right and left paws were measured between the lateral and dorsal surfaces using calipers, and a mean paw thickness for each rat was calculated by averaging these measurements. Rats were then inoculated intradermally with 0.25 mg of adjuvant (M. Tuberculosis H37 RA from Difco) in 100 μL of mineral oil at the base of the tail to induce adjuvant disease. Eleven days post inoculation paw widths of both right and left paws were measured again, and the percent change from the Day 0 reading was calculated. […] On the fifth day after dosing started (day 15 post adjuvant injection) the rats were euthanized without further dosing and paw width measured again. The percent increase in mean paw thickness from day 11 to day 15 was then calculated as a measure of paw swelling which is indicative of the amount of inflammation in the paws measured. […]

[3] = target: T1, human EP2 receptor (Homo sapiens, UniProt P43116); experiment: [3H]-PGE2 receptor binding assay, EP2 membranes; details: HEK293 membranes; [3H]-PGE2; geometric mean ± SEM; read-out: hEP1-4 receptor binding EP2 Ki
T1 construct: host or cells: HEK293, transient; membrane preparation
Procedure: (§2) Receptor binding assays were done using membrane preparations of HEK 293 cells transfected with various prostanoid receptors using previously published procedure (Nakao et al. 2007). EP1 and EP4 membranes were prepared from recombinant HEK293 cells stably expressing human EPl receptor (GenBank Accession # AY275470, Clone ID PER0100000, UMR cDNA Resource Center, Rolla, MO) or human EP4 receptor. EP2 and EP3 membranes were prepared from HEK293 cells transiently transfected with human EP2 receptor (GenBank Accession # AY275471, Clone ID PER0200000, UMR cDNA Resource Center, Rolla, MO) or human EP3 receptor (GenBank Accession # AY429108, Clone ID PER3VI0000, UMR cDNA Resource Center, Rolla, MO) plasmids. Frozen cell pellets were homogenized in homogenization buffer (10 mmol/L Tris‐HCl, pH7.4, 250 mmol/L sucrose, 1 mmol/L EDTA, 0.3 mmol/L indomethacin and protease inhibitor cocktail with EDTA (Roche Molecular Biochemicals, catalog # 1691498)) using a Teflon/glass homogenizer. After a low speed centrifugation (200g for 15 min at 4°C) the supernatant was subjected to high speed centrifugation (30,000g for 60 min at 4°C). Membrane protein preparation was aliquoted and quick frozen on dry ice prior to storage at −80°C. […] Compounds were tested in a 96‐well format using a three‐fold dilution series to generate 10‐point curves. […] The binding reaction was performed in 200 μL MES buffer (10 mmol/L MES, pH 6.0, 10 mmol/L MgCl2, and l mmol/L EDTA) using polystyrene 96‐well plates. […] The membranes were harvested by filtration (TomTek harvester), washed four times with cold buffer (10 mmol/L MES, pH 6.0, 10 mmol/L MgCl2), dried in a 60°C oven, and the radioactivity was quantified as counts per min (CPM) using a TopCount detector. […] Data were analyzed using a 4‐parameter nonlinear logistic equation. K i Conversion from IC50 Values (K i = […] where [L] is the ligand concentration). Results are expressed as the geometric mean ± standard deviation or geometric mean ± standard error as noted.

[4] = target: T2, Rat EP4 (Rattus norvegicus, UniProt P43114); experiment: EP4 cAMP antagonist assay (HTRF), rat EP4; type: cell-based; details: read-out: cAMP Antagonism Rat EP4 IC50
T2 construct: expressed in transfected cells
Procedure: (§3) Human EP4 (GenBank Accession # AY429109, Clone ID PER0400000, UMR cDNA Resource Center, Rolla, MO) was stably expressed in HEK293 cells. Rat EP4 cDNA (GenBank Accession# NM_03276) was cloned into pcDNA 3.1 vector and stably transfected into HEK293 cells. The cell lines were maintained in DMEM (invitrogen) supplemented with 10% fetal bovine serum (FBS), 1 mmol/L sodium pyruvate, 10 mmol/L HEPES, 500 μg/mL geneticin and 2 mmol/L L‐glutamine. Confluent cultures were grown at 37°C in an atmosphere containing 5% CO2. Cells were harvested using 0.25% Trypsin‐ EDTA, suspended in freeze media at a density of 10^7cel1s/mL, and aliquots were stored in liquid nitrogen. Immediately prior to the assay, cells were thawed with DMEM and suspended in cAMP assay buffer (HBSS with 0.1% BSA, 20 mmol/L HEPES and 200 μmol/L IBMX).
(§4) CJ‐023,423 served as the positive control. To measure the cAMP levels, cAMP‐d2 conjugate and anti cAMP‐cryptate conjugate in lysis buffer were incubated with the treated cells at room temperature for 1 h. The HTRF signal was detected using an EnVision plate reader (Perkin‐Elmer, Inc., Waltham, MA, USA.) to calculate the ratio of fluorescence at 665 to 620 nm. The raw data were converted to cAMP (nmol/L) using a cAMP standard curve generated for each experiment. Data were analyzed using a 4‐parameter nonlinear logistic equation. Results are expressed as the geometric mean ± standard deviation or geometric mean ± standard error as noted.

[5] = tested on: dogs with osteoarthritis; design: method as in Rausch‐Derra et al. 2016; details: prospective placebo controlled study, ref Rausch‐Derra et al. 2016; cited from earlier work
[6] = target: T3, human EP1 receptor (Homo sapiens, UniProt P34995); experiment: [3H]-PGE2 receptor binding assay, EP1 membranes
T3 construct: membrane preparation
T3 sequence (P34995 1-402): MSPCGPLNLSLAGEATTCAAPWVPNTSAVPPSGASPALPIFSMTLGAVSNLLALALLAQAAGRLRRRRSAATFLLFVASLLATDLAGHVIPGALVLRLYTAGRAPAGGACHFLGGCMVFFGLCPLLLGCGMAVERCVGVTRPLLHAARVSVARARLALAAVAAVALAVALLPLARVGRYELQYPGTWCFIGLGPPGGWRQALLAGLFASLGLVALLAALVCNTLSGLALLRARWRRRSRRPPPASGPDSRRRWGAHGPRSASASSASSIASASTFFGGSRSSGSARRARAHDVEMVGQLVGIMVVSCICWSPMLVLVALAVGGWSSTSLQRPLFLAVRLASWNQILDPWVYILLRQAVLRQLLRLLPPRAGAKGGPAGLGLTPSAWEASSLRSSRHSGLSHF
Procedure: as §2

[7] = target: T4, human EP3 receptor (Homo sapiens, UniProt P43115); experiment: [3H]-PGE2 receptor binding assay, EP3 membranes; details: HEK293 membranes, geometric mean ± SEM, read-out: hEP1-4 receptor binding EP3 Ki
T4 sequence (P43115 1-359 limits assumed): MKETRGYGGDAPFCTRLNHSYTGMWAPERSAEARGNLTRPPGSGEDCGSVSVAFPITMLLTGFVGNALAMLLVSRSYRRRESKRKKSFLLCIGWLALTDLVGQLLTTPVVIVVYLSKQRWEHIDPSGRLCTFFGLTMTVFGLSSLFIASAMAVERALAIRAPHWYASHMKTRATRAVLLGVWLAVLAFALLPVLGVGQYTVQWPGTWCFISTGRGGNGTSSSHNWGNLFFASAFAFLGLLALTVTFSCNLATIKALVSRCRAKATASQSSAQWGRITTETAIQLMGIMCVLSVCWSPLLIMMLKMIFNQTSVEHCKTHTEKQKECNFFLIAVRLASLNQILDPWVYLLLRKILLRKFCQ
Procedure: as §2

[8] = target: T5, Human EP4 (Homo sapiens, UniProt P35408); experiment: [3H]-PGE2 receptor binding assay, EP4 membranes; design: expressed in transfected cells; membrane preparation; details: HEK293 membranes, geometric mean ± SEM, read-out: hEP1-4 receptor binding EP4 Ki
Procedure: as §2

[9] = target: T5, Human EP4; experiment: EP4 cAMP antagonist assay (HTRF), human EP4; type: cell-based; details: HEK293 cells stably expressing human EP4; PGE2 at EC80; geometric mean ± SEM; read-out: cAMP Antagonism (hEP4) Human EP4 IC50
Procedure: as §3, with “Cells were harvested using 0.25% Trypsin‐ EDTA, suspended in freeze media at a density of 10^7cel1s/mL, and aliquots were stored in liquid nitrogen.” left out
as §4, with “To” for “CJ‐023,423 served as the positive control. To”, “The HTRF signal was detected using an EnVision plate reader (Perkin‐Elmer, Inc., Waltham, MA, USA.) to calculate the ratio of fluorescence at 665 to 620 nm.” left out

[10] = target: T5, Human EP4; experiment: PGE2 stimulated cAMP production by HEK293/EP4 cell line; type: cell-based
Procedure: as §3, with “Cells were harvested using 0.25% Trypsin‐ EDTA, suspended in freeze media at a density of 10^7cel1s/mL, and aliquots were stored in liquid nitrogen.” left out
as §4, with “To” for “CJ‐023,423 served as the positive control. To”, “The HTRF signal was detected using an EnVision plate reader (Perkin‐Elmer, Inc., Waltham, MA, USA.) to calculate the ratio of fluorescence at 665 to 620 nm.” left out

[11] = 10 mg/kg oral once daily for seventeen days

T5 sequence (P35408 whole entry): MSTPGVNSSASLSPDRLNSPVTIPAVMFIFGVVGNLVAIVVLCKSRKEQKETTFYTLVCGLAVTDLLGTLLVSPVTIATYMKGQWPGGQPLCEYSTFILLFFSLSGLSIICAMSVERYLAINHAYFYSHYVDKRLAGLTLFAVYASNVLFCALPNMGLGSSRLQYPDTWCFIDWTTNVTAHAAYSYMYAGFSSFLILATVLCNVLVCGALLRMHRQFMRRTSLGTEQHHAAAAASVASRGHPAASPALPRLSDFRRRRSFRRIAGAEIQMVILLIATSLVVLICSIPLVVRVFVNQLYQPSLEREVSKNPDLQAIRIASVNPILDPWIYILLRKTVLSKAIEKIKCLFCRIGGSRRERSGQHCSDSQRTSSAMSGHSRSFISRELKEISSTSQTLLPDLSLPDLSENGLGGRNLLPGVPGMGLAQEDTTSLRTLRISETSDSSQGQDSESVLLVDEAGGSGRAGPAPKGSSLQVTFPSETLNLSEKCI
T1 sequence (P43116 whole entry): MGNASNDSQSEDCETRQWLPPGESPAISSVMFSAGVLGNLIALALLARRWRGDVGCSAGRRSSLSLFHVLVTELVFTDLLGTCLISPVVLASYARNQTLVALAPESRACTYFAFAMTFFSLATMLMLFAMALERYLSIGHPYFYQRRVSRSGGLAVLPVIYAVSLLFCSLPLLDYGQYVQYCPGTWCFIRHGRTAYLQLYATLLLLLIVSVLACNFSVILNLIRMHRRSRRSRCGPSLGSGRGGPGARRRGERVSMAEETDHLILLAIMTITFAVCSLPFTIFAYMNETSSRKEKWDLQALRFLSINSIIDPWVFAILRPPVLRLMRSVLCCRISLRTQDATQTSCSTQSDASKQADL
T2 sequence (P43114 whole entry): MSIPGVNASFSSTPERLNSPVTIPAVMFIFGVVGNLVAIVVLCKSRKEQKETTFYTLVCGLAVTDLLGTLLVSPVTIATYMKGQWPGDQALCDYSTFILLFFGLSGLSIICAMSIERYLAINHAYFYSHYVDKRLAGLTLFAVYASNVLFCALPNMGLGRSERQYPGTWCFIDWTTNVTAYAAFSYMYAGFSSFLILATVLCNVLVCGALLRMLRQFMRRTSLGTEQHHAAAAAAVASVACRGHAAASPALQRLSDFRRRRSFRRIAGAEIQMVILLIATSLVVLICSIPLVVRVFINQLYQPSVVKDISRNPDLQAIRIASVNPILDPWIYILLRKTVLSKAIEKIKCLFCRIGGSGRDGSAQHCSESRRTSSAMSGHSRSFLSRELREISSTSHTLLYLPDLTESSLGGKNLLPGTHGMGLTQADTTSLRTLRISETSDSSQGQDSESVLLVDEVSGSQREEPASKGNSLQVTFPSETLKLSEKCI

With `C[C@]12C=CC(=O)C=C1CC[C@@H]1[C@@H]2[C@@H](O)C[C@@]2(C)[C@H]1CC[C@]2(O)C(=O)CO` [prednisolone, Prednisolone] the “reduction in summed scores (ankle histology)” value [1, 11] was 93%, the “reductions in all ankle scores (histology)” value [1, 11] was 87–99% and the ankle thickness ([1]; 10 mg/kg oral once daily, data not shown) was “significant reduction”. The “knee joint histopathology (representative photomicrograph)” value ([1]; Fig. 10 bottom panel, prednisolone 10 mg/kg, compound 3 dose not given) was “very minimal inflammation (S) and cartilage damage not visible at this magnification” and the “ankle joint histopathology (representative photomicrograph)” value ([1]; Fig. 10 top panel, prednisolone 10 mg/kg, compound 3 dose not given) was “minimal inflammation (S) and minimal cartilage damage”.
In the case of `O=C(O)Cc1ccccc1Nc1c(Cl)cccc1Cl` [diclofenac, reference compound], the “increases in paw inflammation (swelling) compared to vehicle” value [2] is reported as “significantly inhibited”.
For `CCc1nc2c(C)nc(C)cc2n1-c1ccc(CCNC(=O)NS(=O)(=O)c2ccc(C)cc2)cc1` [CJ‐023,423, N‐[({2‐[4‐(2‐ethyl‐4, 6‐dimethyl‐1H‐imidazo [4, 5–c]pyridin‐1‐yl)phenyl]ethyl}amino)carbonyl]‐4‐methylbenzenesulfonamide, reference compound], the Ki [3] is listed as over 21600 nM, the IC50 [4] is listed as 13.1 ± 1 nM and the “efficacy for signs and symptoms of OA” value [5] is listed as “efficacious”. For the same molecule, the Ki ([6]; HEK293 membranes, [3H]-PGE2, geometric mean ± SEM, read-out: hEP1-4 receptor binding EP1 Ki) was over 22900 nM, the Ki [7] was over 19500 nM and the Ki [8] was 449 ± 123 nM. The IC50 [9] was 12 nM and 11.7 nM.
In the case of `CCCCC[C@H](O)/C=C/[C@H]1[C@H](O)CC(=O)[C@@H]1C/C=C\CCCC(=O)O` [PGE2, Prostaglandin (PG) E2], the “EC80 cAMP production” value ([10]; HEK 293 cells stably transfected with human EP4 cDNA, 20 min) is reported as 0.34 nM and the “EC80 cAMP production (Fig. 2A)” value ([10]; HEK‐293 cells stably transfected with human EP4 cDNA, 20 min at room temperature) is reported as 0.34 nM.
With `CCCCC[C@H](O)/C=C/[C@H]1[C@H](O)CC(=O)[C@@H]1C/C=C\CCCC(=O)O` [^3[H] PGE2] the Kd ([6]; read-out: ^3[H] PGE2 Binding/kd EP1, HEK 293 membranes, homologous competition (Fig. 3D)) was 5.62 nM.
